Values quoted from earlier work in patent US20240366545A1, “ANTIBACTERIAL PORPHYRIN NANOPARTICLES AND METHODS FOR MAKING AND USING THE SAME” (priority 2021, published 2024).

System: normal mammalian cells

CCCCCCCCCCCCCCCC[N+](C)(C)C.[Br-] [CTAB, cetyl trimethylammonium bromide]
toxic concentration: ≥ 10 µM
